Test results: ChEMBL document CHEMBL3286219, “NF-κB inhibitory activity of polyoxygenated steroids from the Vietnamese soft coral Sarcophyton pauciplicatum” (Bioorg Med Chem Lett, 2014)
Active and inactive are the calls of the source. The rule behind the calls is not given here.

Assays:
Type in all cases: cell-based
HaCaT = test: Cytotoxicity against human HaCaT cells at 5 to 20 uM after 24 hrs by MTS assay
[1] = target: T1, Nuclear factor NF-kappa-B complex (Homo sapiens) (UniProt Q00653+P19838+Q04206); test: Inhibition of NF-kappaB activation in human HaCaT cells assessed as inhibition of TNFalpha/IFNgamma-induced transcriptional activity at 50 uM after 24 hrs by Renilla luciferase assay
[2] = target: T1, Nuclear factor NF-kappa-B complex (Homo sapiens); test: Inhibition of NF-kappaB activation in human HaCaT cells assessed as inhibition of TNFalpha/IFNgamma-induced iNOS mRNA expression after 1 hr by RT-PCR
[3] = target: Nuclear factor NF-kappa-B complex (Homo sapiens, UniProt P19838+Q00653+Q04206); test: Inhibition of NF-kappaB activation in human HaCaT cells assessed as inhibition of TNFalpha/IFNgamma-induced transcriptional activity after 24 hrs by Renilla luciferase assay
[4] = target: T1, Nuclear factor NF-kappa-B complex (Homo sapiens); test: Inhibition of NF-kappaB activation in human HaCaT cells assessed as inhibition of TNFalpha/IFNgamma-induced ICAM-1 mRNA expression after 1 hr by RT-PCR
[5] = target: T1, Nuclear factor NF-kappa-B complex (Homo sapiens); test: Inhibition of NF-kappaB activation in human HaCaT cells assessed as inhibition of TNFalpha/IFNgamma-induced COX2 mRNA expression after 1 hr by RT-PCR

T1 sequence (P19838 whole entry, looked up): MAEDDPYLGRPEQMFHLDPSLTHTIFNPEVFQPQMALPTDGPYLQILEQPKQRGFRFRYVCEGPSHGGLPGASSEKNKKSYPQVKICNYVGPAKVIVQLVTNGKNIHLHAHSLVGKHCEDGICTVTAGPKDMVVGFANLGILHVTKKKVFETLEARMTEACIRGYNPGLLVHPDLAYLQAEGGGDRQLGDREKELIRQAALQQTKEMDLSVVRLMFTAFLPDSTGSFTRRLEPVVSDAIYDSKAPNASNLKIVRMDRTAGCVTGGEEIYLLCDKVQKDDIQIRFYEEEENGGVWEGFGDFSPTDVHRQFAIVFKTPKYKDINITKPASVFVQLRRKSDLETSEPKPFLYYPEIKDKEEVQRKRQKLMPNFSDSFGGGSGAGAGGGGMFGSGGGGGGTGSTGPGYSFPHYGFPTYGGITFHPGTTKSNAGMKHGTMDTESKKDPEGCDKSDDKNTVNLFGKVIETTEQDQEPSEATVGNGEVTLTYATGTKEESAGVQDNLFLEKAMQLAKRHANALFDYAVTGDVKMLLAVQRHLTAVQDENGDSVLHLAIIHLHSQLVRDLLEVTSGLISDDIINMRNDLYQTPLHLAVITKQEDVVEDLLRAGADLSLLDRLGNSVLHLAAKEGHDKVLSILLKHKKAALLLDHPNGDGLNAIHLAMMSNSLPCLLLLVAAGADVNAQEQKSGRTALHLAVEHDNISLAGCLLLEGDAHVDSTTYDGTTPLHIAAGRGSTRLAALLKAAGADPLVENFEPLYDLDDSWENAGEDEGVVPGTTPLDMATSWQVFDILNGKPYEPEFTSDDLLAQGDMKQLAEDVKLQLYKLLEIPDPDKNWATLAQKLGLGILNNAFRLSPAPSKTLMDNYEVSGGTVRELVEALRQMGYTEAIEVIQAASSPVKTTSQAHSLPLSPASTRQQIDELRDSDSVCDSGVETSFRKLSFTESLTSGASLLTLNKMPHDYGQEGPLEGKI
T1 sequence (Q00653 whole entry, looked up): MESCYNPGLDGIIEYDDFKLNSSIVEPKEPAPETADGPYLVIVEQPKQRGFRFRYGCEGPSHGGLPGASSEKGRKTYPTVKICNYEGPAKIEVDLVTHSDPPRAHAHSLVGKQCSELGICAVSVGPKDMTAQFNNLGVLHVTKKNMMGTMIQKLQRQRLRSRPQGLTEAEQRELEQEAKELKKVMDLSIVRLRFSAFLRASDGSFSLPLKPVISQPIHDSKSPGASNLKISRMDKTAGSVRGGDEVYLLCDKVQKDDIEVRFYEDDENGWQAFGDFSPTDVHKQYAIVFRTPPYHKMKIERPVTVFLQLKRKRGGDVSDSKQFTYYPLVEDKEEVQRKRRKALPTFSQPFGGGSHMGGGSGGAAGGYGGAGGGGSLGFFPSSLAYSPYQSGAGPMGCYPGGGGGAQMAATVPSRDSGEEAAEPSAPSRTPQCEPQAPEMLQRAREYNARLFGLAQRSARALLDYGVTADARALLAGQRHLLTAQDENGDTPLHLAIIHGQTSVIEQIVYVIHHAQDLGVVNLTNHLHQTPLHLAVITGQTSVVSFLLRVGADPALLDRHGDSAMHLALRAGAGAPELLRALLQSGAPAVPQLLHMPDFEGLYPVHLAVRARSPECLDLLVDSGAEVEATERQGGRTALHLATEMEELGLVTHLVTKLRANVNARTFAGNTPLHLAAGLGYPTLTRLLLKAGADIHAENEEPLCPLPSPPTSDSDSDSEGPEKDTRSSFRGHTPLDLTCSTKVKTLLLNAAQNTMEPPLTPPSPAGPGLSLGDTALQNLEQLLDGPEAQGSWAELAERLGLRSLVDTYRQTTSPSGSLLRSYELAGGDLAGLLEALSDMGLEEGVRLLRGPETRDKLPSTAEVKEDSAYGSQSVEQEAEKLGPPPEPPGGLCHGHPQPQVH
T1 sequence (Q04206 whole entry, looked up): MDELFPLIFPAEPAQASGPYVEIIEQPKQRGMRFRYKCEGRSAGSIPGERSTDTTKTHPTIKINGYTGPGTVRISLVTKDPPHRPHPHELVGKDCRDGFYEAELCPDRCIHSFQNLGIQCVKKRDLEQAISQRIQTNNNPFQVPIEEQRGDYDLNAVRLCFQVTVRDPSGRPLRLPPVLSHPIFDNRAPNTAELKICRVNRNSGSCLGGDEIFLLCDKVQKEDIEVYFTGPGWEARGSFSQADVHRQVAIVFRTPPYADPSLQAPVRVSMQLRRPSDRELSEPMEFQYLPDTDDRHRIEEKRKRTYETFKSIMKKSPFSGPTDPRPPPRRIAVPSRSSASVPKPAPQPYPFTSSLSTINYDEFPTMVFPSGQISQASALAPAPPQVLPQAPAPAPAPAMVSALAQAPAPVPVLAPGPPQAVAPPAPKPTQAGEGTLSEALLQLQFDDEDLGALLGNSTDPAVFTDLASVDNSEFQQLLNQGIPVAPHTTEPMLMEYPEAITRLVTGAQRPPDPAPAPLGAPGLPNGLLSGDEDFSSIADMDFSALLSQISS
Sequence of Nuclear factor NF-kappa-B complex (P19838 1-433 limits assumed): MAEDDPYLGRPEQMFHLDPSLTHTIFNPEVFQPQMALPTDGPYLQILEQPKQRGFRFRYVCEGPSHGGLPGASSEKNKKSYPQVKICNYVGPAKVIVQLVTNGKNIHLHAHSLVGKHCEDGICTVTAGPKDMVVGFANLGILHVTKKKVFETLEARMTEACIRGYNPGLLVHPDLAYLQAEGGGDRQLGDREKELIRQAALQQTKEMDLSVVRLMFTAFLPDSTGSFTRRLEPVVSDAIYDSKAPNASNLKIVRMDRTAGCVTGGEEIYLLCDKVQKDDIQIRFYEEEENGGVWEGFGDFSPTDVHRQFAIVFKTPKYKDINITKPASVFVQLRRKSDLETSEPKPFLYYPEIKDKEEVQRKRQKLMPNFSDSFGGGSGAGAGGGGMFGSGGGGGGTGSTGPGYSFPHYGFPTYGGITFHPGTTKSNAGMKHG
Sequence of Nuclear factor NF-kappa-B complex (Q00653 1-454 limits assumed): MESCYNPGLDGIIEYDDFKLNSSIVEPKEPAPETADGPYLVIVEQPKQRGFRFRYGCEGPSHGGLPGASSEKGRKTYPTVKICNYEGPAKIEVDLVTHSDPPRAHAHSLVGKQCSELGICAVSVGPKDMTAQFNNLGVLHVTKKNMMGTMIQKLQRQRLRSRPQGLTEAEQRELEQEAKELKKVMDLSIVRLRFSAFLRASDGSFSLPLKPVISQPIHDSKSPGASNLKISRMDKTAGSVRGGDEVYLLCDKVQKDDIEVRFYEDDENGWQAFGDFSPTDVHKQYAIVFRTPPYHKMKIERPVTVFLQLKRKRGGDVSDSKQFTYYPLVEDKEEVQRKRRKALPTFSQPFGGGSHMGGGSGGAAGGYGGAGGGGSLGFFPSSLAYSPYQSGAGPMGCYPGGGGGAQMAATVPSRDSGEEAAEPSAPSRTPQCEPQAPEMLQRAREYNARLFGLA
Sequence of Nuclear factor NF-kappa-B complex (Q04206 whole entry): as the sequence (Q04206 whole entry, looked up) above

inhibition [1]	inhibition [2]	EC50 [3]	inhibition [4]	inhibition [5]	Structure (SMILES)	Activity (HaCaT)
Active	–	–	–	–	C=C(C)[C@@H](C)CC[C@@H](C)[C@H]1CC[C@H]2[C@@H]3C[C@@H](O)[C@@]4(O)C[C@@H](O)C[C@@H](O)[C@]4(C)[C@H]3CC[C@]12C	Non-toxic
–	Dose-dependent effect	8.27 µM	Dose-dependent effect	Dose-dependent effect	CC(=O)OC(C)(C)[C@@H](C)/C=C/[C@@H](C)[C@H]1CC[C@H]2[C@@H]3C[C@@H](O)[C@@]4(O)C[C@@H](O)C[C@@H](O)[C@]4(C)[C@H]3CC[C@]12C	Non-toxic
–	–	26.1 µM	–	–	CC(=O)OC(C)(C)[C@@H](C)CC[C@@H](C)[C@H]1CC[C@H]2[C@@H]3C[C@@H](O)[C@@]4(O)C[C@@H](O)C[C@@H](O)[C@]4(C)[C@H]3CC[C@]12C	Non-toxic
